Test: xn = mol fraction of the nth substance listed
Settings: 101 kPa, Liquid, Cone and plate viscometry

CC(=O)[O-].CCCC[N+](CC)(CC)CC [N,N,N-triethylbutanaminium acetate] + O
viscosity [mPa·s]
Settings | x1 = 0.17 | x1 = 0.33 | x1 = 0.5 | x1 = 1
298.2 K | 13 | 66 | 79 | 439
313.2 K | 10.9 | 39.4 | 55.5 | 306.7
333.2 K | 5.15 | 12.6 | 15.6 | 47.3

Reference: the NIST ThermoML archive (doi:10.1021/je101014q)
